Laboratory results taken from patent US20260284208A1, “SYSTEM” (Oxford University Innovation Limited, priority 2023, published 2026).

Tested on: library of 8,380 IKZF3 degrons (ZF-eGFP/mCherry reporter) in Jurkat cells
Assay: Pooled library screen (FACS, NGS, limma voom LogFC of positive vs negative read counts)
Assay type: cell-based, human
Outline: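 Cells were lentivirally transduced at MOI <0.3, and mCherry+ cells were sorted 6 days later. Eight days after sorting, cells were treated with DMSO or thalidomide analog for 18 h at 37 °C. mCherry+GFPlow (DMSO-set gate, DAPI-excluded) and remaining cells were sorted, and degrons were PCR-amplified from gDNA and sequenced (>600× coverage, 3 biological replicates).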

SMILES: CN1CCN(c2ccc3c(c2)C(=O)N(C2CCC(=O)NC2=O)C3=O)CC1 (centres unmarked) [B08, 2-(2,6-dioxopiperidin-3-yl)-5-(4-methylpiperazin-1-yl)isoindoline-1,3-dione]
- B08_logFC (Degron-ID 115, SEQ ID NO 2354, 46F_47A_49E_50V_52G_53A_54S_55F_67L): 2.665
- B08_logFC (Degron-ID 312, SEQ ID NO 2356, 46F_47C_49E_50I_52G_53A_54P_55F_67L): 2.662
- B08_logFC (Degron-ID 313, SEQ ID NO 2359, 46F_47C_49E_50I_52G_53A_54Q_55F_67L): 2.659
- B08_logFC (Degron-ID 316, SEQ ID NO 2364, 46F_47C_49E_50I_52G_53A_54T_55F_67L): 2.641
- B08_logFC (Degron-ID 355, SEQ ID NO 2334, 46F_47C_49E_50V_52G_53A_54S_55F_67L): 2.718
- B08_logFC (Degron-ID 432, SEQ ID NO 2346, 46F_47C_49P_50I_52G_53A_54P_55F_67L): 2.683
- B08_logFC (Degron-ID 480, SEQ ID NO 2273, 46F_47D_49D_50I_52G_53A_54A_55F_67L): 2.887
- B08_logFC (Degron-ID 495, SEQ ID NO 2327, 46F_47D_49D_50I_52G_53A_54S_55F_67L): 2.748
- B08_logFC (Degron-ID 556, SEQ ID NO 2290, 46F_47D_49E_50I_52G_53A_54T_55F_67L): 2.821
- B08_logFC (Degron-ID 557, SEQ ID NO 2336, 46F_47D_49E_50I_52G_53A_54V_55F_67L): 2.714
- B08_logFC (Degron-ID 591, SEQ ID NO 2348, 46F_47D_49E_50V_52G_53A_54N_55F_67L): 2.678
- B08_logFC (Degron-ID 593, SEQ ID NO 2355, 46F_47D_49E_50V_52G_53A_54Q_55F_67L): 2.664
- B08_logFC (Degron-ID 600, SEQ ID NO 2284, 46F_47D_49N_50I_52G_53A_54A_55F_67L): 2.845
- B08_logFC (Degron-ID 825, SEQ ID NO 2282, 46F_47E_49E_50V_52G_53A_54G_55F_67L): 2.853
- B08_logFC (Degron-ID 852, SEQ ID NO 2326, 46F_47E_49N_50I_52G_53A_54P_55F_67L): 2.749
- B08_logFC (Degron-ID 966, SEQ ID NO 2283, 46F_47F_49D_50I_52G_53A_54H_55F_67L): 2.85
- B08_logFC (Degron-ID 1014, SEQ ID NO 2319, 46F_47F_49D_50V_52G_53A_54R_55F_67L): 2.759
- B08_logFC (Degron-ID 1079, SEQ ID NO 2329, 46F_47F_49E_50V_52G_53A_54Y_55F_67L): 2.743
- B08_logFC (Degron-ID 1091, SEQ ID NO 2265, 46F_47F_49N_50I_52G_53A_54N_55F_67L): 2.903
- B08_logFC (Degron-ID 1095, SEQ ID NO 2275, 46F_47F_49N_50I_52G_53A_54S_55F_67L): 2.882
- B08_logFC (Degron-ID 1096, SEQ ID NO 2340, 46F_47F_49N_50I_52G_53A_54T_55F_67L): 2.704
- B08_logFC (Degron-ID 1146, SEQ ID NO 2305, 46F_47F_49P_50I_52G_53A_54H_55F_67L): 2.792
- B08_logFC (Degron-ID 1147, SEQ ID NO 2343, 46F_47F_49P_50I_52G_53A_54I_55F_67L): 2.701
- B08_logFC (Degron-ID 1149, SEQ ID NO 2361, 46F_47F_49P_50I_52G_53A_54L_55F_67L): 2.65
- B08_logFC (Degron-ID 1154, SEQ ID NO 2333, 46F_47F_49P_50I_52G_53A_54R_55F_67L): 2.724
- B08_logFC (Degron-ID 1159, SEQ ID NO 2293, 46F_47F_49P_50I_52G_53A_54Y_55F_67L): 2.817
- B08_logFC (Degron-ID 1186, SEQ ID NO 2321, 46F_47F_49P_50V_52G_53A_54H_55F_67L): 2.754
- B08_logFC (Degron-ID 1192, SEQ ID NO 2303, 46F_47F_49P_50V_52G_53A_54P_55F_67L): 2.797
- B08_logFC (Degron-ID 1440, SEQ ID NO 2337, 46F_47H_49D_50I_52G_53A_54A_55F_67L): 2.712
- B08_logFC (Degron-ID 1541, SEQ ID NO 2267, 46F_47H_49E_50V_52G_53A_54C_55F_67L): 2.901
- B08_logFC (Degron-ID 1552, SEQ ID NO 2268, 46F_47H_49E_50V_52G_53A_54P_55F_67L): 2.901
- B08_logFC (Degron-ID 1572, SEQ ID NO 2307, 46F_47H_49N_50I_52G_53A_54P_55F_67L): 2.781
- B08_logFC (Degron-ID 1575, SEQ ID NO 2324, 46F_47H_49N_50I_52G_53A_54S_55F_67L): 2.75
- B08_logFC (Degron-ID 1635, SEQ ID NO 2315, 46F_47H_49P_50I_52G_53A_54S_55F_67L): 2.766
- B08_logFC (Degron-ID 1660, SEQ ID NO 2328, 46F_47H_49P_50V_52G_53A_54A_55F_67L): 2.746
- B08_logFC (Degron-ID 1673, SEQ ID NO 2281, 46F_47H_49P_50V_52G_53A_54Q_55F_67L): 2.855
- B08_logFC (Degron-ID 1812, SEQ ID NO 2277, 46F_47I_49N_50I_52G_53A_54P_55F_67L): 2.872
- B08_logFC (Degron-ID 2412, SEQ ID NO 2342, 46F_47M_49D_50I_52G_53A_54P_55F_67L): 2.702
- B08_logFC (Degron-ID 2832, SEQ ID NO 2294, 46F_47N_49P_50I_52G_53A_54P_55F_67L): 2.815
- B08_logFC (Degron-ID 2940, SEQ ID NO 2314, 46F_47Q_49E_50I_52G_53A_54A_55F_67L): 2.768
- B08_logFC (Degron-ID 2955, SEQ ID NO 2358, 46F_47Q_49E_50I_52G_53A_54S_55F_67L): 2.66
- B08_logFC (Degron-ID 2957, SEQ ID NO 2350, 46F_47Q_49E_50I_52G_53A_54V_55F_67L): 2.675
- B08_logFC (Degron-ID 2987, SEQ ID NO 2341, 46F_47Q_49E_50V_52G_53A_54I_55F_67L): 2.703
- B08_logFC (Degron-ID 3012, SEQ ID NO 2271, 46F_47Q_49N_50I_52G_53A_54P_55F_67L): 2.893
- B08_logFC (Degron-ID 3100, SEQ ID NO 2338, 46F_47Q_49P_50V_52G_53A_54A_55F_67L): 2.707
- B08_logFC (Degron-ID 3172, SEQ ID NO 2291, 46F_47R_49D_50V_52G_53A_54P_55F_67L): 2.82
- B08_logFC (Degron-ID 3252, SEQ ID NO 2349, 46F_47R_49N_50I_52G_53A_54P_55F_67L): 2.676
- B08_logFC (Degron-ID 3360, SEQ ID NO 2289, 46F_47S_49D_50I_52G_53A_54A_55F_67L): 2.823
- B08_logFC (Degron-ID 3421, SEQ ID NO 2287, 46F_47S_49E_50I_52G_53A_54C_55F_67L): 2.828
- B08_logFC (Degron-ID 3433, SEQ ID NO 2323, 46F_47S_49E_50I_52G_53A_54Q_55F_67L): 2.75
